{"source": "ChEMBL document CHEMBL1201862", "about": "“PubChem BioAssay data set” (2004)", "key": {"[1]": {"target": "Estrogen receptor beta (Homo sapiens, UniProt Q92731)", "sequence (Q92731 whole entry)": "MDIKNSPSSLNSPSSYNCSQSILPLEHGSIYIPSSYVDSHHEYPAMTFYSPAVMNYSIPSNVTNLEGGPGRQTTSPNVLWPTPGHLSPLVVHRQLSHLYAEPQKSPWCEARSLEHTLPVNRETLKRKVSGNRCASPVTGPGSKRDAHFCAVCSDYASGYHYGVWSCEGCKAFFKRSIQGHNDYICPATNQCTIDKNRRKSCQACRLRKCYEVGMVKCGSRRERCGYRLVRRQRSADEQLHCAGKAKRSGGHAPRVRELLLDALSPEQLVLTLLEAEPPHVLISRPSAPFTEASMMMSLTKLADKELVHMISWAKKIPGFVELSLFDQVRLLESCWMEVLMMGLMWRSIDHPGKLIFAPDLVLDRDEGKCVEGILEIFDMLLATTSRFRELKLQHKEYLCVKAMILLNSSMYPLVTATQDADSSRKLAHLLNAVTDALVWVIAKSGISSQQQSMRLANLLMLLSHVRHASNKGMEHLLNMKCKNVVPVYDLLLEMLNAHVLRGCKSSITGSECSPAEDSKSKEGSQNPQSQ"}, "[2]": {"assay": "HeLa cell cytotoxicity, dose response, cytotoxicity control for MgcRacGAP inhibitor project (AID 624300)", "format": "functional"}, "[3]": {"target": "Glyceraldehyde-3-phosphate dehydrogenase (Homo sapiens, UniProt P04406)", "sequence (P04406 whole entry)": "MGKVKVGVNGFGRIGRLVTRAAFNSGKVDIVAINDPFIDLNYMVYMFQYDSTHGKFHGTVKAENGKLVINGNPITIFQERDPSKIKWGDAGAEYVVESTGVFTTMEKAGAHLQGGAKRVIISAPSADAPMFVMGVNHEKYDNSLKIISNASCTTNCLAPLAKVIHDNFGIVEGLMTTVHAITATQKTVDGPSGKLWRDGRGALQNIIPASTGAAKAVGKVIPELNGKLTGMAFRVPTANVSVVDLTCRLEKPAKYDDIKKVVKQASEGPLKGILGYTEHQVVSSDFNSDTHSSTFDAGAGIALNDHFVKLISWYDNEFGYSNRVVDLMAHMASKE"}, "[4]": {"target": "T1, High affinity choline transporter 1 (Homo sapiens, UniProt Q9GZV3)", "T1 sequence (Q9GZV3 whole entry)": "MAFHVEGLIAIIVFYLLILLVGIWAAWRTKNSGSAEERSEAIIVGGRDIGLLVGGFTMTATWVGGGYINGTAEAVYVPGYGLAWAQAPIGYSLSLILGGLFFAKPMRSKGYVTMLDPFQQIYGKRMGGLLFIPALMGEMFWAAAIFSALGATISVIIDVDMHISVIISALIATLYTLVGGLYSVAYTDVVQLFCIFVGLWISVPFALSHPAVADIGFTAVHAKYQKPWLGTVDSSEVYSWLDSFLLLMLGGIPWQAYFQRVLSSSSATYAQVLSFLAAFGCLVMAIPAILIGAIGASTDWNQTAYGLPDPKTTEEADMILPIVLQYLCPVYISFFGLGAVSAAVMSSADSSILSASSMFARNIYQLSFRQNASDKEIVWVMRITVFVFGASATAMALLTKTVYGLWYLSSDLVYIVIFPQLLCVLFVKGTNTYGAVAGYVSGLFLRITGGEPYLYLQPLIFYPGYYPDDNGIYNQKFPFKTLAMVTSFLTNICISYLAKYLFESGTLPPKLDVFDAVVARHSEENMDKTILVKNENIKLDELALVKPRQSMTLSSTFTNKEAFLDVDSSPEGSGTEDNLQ", "assay": "CHT inhibitors, dose response, cell-based, 5-point CRC, membrane potential dye (AID 504840)", "format": "functional"}, "[5]": {"target": "FAD-linked sulfhydryl oxidase ALR (Homo sapiens, UniProt P55789)", "sequence (P55789 whole entry)": "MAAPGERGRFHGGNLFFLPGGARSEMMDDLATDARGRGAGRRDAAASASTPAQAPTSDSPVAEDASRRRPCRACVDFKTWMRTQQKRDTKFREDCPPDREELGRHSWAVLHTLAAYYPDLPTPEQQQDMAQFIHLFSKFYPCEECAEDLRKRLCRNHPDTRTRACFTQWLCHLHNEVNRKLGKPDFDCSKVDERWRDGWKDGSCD", "assay": "inhibitors of human ALR sulfhydryl oxidase, dose response, biochemical, H2O2 detection, luminescence, cherry-pick (AID 493248)"}, "[6]": {"target": "Cytochrome P450 2C19 (Homo sapiens, UniProt P33261)", "sequence (P33261 whole entry)": "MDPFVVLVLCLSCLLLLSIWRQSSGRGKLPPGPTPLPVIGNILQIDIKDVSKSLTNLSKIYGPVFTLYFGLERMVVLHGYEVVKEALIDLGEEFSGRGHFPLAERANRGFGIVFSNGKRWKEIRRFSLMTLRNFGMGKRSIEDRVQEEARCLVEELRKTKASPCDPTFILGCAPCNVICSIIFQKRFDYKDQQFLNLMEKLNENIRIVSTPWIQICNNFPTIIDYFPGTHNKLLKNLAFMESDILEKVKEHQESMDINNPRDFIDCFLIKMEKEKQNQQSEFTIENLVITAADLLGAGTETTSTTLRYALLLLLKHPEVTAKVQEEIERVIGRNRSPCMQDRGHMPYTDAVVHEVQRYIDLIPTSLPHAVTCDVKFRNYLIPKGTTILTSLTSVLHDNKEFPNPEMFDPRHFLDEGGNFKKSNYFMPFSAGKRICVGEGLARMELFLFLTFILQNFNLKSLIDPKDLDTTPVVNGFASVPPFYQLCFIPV", "assay": "Cytochrome panel assay with activity outcomes. Panel member name: p450-cyp2c19 Compounds with AC50 equal or less than 10 uM are considered active", "format": "functional", "conditions": "read-out: AC50"}, "[7]": {"target": "T2, Rac GTPase-activating protein 1 (Homo sapiens, UniProt Q9H0H5)", "T2 sequence (Q9H0H5 whole entry)": "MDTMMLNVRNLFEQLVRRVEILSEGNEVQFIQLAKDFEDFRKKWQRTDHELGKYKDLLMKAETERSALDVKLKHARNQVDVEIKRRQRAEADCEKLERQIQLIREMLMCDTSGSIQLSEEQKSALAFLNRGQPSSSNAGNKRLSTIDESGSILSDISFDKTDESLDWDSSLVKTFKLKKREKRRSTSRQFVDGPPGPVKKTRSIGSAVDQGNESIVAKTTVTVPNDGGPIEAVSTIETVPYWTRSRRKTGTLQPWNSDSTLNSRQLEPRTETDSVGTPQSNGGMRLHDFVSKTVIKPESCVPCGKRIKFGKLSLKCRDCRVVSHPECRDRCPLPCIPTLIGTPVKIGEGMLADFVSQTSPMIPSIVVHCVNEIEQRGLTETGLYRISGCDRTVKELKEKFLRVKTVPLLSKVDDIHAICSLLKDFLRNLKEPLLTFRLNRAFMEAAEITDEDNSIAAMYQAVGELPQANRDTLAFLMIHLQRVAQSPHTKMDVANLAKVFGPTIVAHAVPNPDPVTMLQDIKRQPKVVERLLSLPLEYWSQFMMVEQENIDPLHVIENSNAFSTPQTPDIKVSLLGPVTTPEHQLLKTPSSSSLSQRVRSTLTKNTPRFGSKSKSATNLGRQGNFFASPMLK", "assay": "MgcRacGAP GTPase-activating activity inhibitors, confirmation, biochemical, ADP Hunter fluorescence, primary and confirmatory (AID 624330)", "format": "functional"}, "[8]": {"target": "T3, Cytochrome P450 1A2 (Homo sapiens, UniProt P05177)", "T3 sequence (P05177 whole entry)": "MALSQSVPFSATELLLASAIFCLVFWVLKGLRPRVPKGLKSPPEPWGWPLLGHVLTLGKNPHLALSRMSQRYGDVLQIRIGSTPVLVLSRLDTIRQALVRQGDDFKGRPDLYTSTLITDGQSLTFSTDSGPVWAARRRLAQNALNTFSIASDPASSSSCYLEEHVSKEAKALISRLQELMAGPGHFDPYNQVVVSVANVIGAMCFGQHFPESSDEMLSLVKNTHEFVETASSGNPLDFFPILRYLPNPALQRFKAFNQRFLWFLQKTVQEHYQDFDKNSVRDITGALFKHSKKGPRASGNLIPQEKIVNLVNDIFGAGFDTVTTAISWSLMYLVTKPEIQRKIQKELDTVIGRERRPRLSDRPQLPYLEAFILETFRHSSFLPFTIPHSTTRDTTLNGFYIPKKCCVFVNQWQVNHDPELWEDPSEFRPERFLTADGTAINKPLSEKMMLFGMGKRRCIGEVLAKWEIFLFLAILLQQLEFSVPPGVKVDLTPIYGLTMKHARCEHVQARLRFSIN"}, "[9]": {"assay": "growth suppression of PTEN-null colon cells, dose response, cell-based, HCT116 PTEN knockout (AID 1047);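 also: cells exposed to compound for 60 hours before readout; potency for loss of cell viability measured by luminescence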", "format": "functional"}, "[10]": {"assay": "growth suppression of beta-catenin-knockout colon cells, dose response, cell-based, HCT116, human colon tumor (AID 1045);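 also: cells exposed to compound for 60 hours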", "format": "functional"}, "[11]": {"assay": "Luminescence Cell-Based Dose Retest to Confirm Inhibitors of Cancer Stem Cells. [Related pubchem assays (depositor defined):AID2717, AID2721]", "format": "functional", "conditions": "Homo sapiens"}, "[12]": {"system": "INS1", "assay": "beta cell apoptosis inhibitors, cytokine rescue, dose response, luminescence, retest (AID 449756);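 also: cell death triggered by IL-1 beta plus TNF-alpha plus IFN-gamma mixture; protective hits raise ATP signal compared with cytokine alone wells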", "format": "functional, cell-based", "conditions": "Rattus norvegicus"}, "[13]": {"assay": "inhibitors of clade B AD8 Env fusion, dose response, cell-based, cherry-pick (AID 652062);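 also: luciferase signal from cell-cell fusion driven by HIV-1 clade B AD8 Env; potency is for inhibitors of fusion seen as a drop in luminescence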", "format": "functional"}, "[14]": {"system": "P388/ADR", "assay": "cells", "format": "functional", "conditions": "Mus musculus"}, "[15]": {"system": "SN12K1", "assay": "cells", "format": "functional", "conditions": "Homo sapiens"}}, "note": "Activity calls are given as the source filed them."}
{"smiles": "CN1CCCC(OC(=O)c2ccc3c(c2)OCCO3)C1", "note": "(configuration not stated)", "values": [{"measurement": "IC50", "setting": "[1]", "result": "> 50 µM (not active)"}]}
{"smiles": "O=C(/C=C/c1ccc([N+](=O)[O-])cc1)/C=C/c1ccco1", "values": [{"measurement": "CC50", "setting": "[2]", "result": "100 µM (active)"}]}
{"smiles": "O=C(CSc1nc2ccccc2s1)NO", "values": [{"measurement": "IC50", "setting": "[3]", "result": "> 100 µM (not active)"}]}
{"smiles": "CCCNCC1COc2ccccc2O1", "note": "(configuration not stated)", "values": [{"measurement": "IC50", "setting": "[1]", "result": "4.1 µM (active)"}]}
{"smiles": "O=C(OCc1nc(O)c2sccc2n1)c1ccc(Cl)s1", "values": [{"measurement": "IC50", "setting": "[4]", "result": "12.6 µM (active)"}]}
{"smiles": "COCCCNc1nc2c([nH]1)c(=O)[nH]c(=O)n2C", "values": [{"measurement": "IC50", "setting": "[1]", "result": "> 50 µM (not active)"}]}
{"smiles": "O=C(c1ccc2c(c1)OCO2)N1CCN=C1SCc1ccccc1", "values": [{"measurement": "AC50", "setting": "[5]", "result": "> 100 µM (inactive)"}]}
{"smiles": "CN(C)CCCN1c2ccc(O)cc2Sc2ccc(Cl)cc21", "note": "[7-HYDROXYCHLORPROMAZINE]", "values": [{"measurement": "AC50", "setting": "[6]", "result": "0.794 µM (inconclusive)"}, {"measurement": "CC50", "setting": "[2]", "result": "84.5 µM (active)"}, {"measurement": "IC50", "setting": "[7]", "result": "11.6 µM (active)"}, {"measurement": "AC50", "setting": "[8]", "result": "0.631 µM (inconclusive)"}]}
{"smiles": "C=CCn1c(SCC(=O)c2[nH]c(C)c(C(=O)OCC)c2C)nc2scc(-c3ccc(OC)c(OC)c3)c2c1=O", "values": [{"measurement": "EC50", "setting": "[9]", "result": "6.55 µM (active)"}, {"measurement": "EC50", "setting": "[10]", "result": "7.26 µM (active)"}, {"measurement": "AC50", "setting": "[11]", "result": "2.05 µM (active)"}, {"measurement": "AC50", "setting": "[12]", "result": "3.37 µM (active)"}]}
{"smiles": "COc1ccc(OC)c(S(=O)(=O)Nc2cccnc2)c1", "values": [{"measurement": "IC50", "setting": "[3]", "result": "> 100 µM (not active)"}]}
{"smiles": "O=C(C[C@@H]1C[C@H]2c3cc(NC(=O)Nc4ccccc4)ccc3O[C@H]2[C@H](CO)O1)NCc1cccnc1", "values": [{"measurement": "AC50", "setting": "[13]", "result": "1.64 µM (active)"}]}
{"smiles": "CN1C(=O)/C(=C2\\SC(N)=NC2=O)c2ccccc21", "values": [{"measurement": "EC50", "setting": "[9]", "result": "33.2 µM (active)"}, {"measurement": "EC50", "setting": "[10]", "result": "44.1 µM (active)"}]}
{"smiles": "CCn1cc(/C=C(\\NC(=O)c2ccccc2F)C(=O)NCCCn2ccnc2)c2ccccc21", "values": [{"measurement": "IC50", "setting": "[4]", "result": "14.5 µM (active)"}]}
{"smiles": "COC1C(OC(=O)/C=C/C=C/C=C/C=C/C(=O)O)CCC2(CO2)C1C1(C)OC1CC=C(C)C", "note": "(configuration not stated)", "values": [{"measurement": "GI50", "setting": "[14]", "result": "13.2 µM (inactive)"}, {"measurement": "GI50", "setting": "[15]", "result": "16.1 µM (inactive)"}]}
